In patent EP0003920A1, “Thieno (3,2-c)- and thieno (2,3-c)pyridines, process for their preparation and their therapeutical application” (OMNIUM FINANCIER AQUITAINE POUR L'HYGIENE ET LA SANTE - …, priority 1978, dated 1979):

What was measured:
[1] = test system: rat; experiment: Localised carrageenan-induced oedema; assay type: in vivo; details: 100 mg/kg oral at -1 h, 0 h, +2.5 h
Procedure: Une solution de carragénine (0,1 ml), à 1 %, est injectée dans les fléchisseurs métatarsiens de la patte postérieure droite du rat au temps 0. Les animaux du lot traité reçoivent en outre, par la voie orale, 100 mg par kg du dérivé à tester respectivement 1 heure avant, en même temps que l'injection de l'agent phlogogène, puis 1 heure et 2 heures et demi après. Les mesures qui sont effectuées à l'aide du micromètre de ROGH au temps 0, 1 heure, 2 heures, 3 heures et 5 heures après l'administration de la carragénine permettent de déterminer, en fonction du temps, le pourcentage d'activité anti-inflammatoire, par comparaison avec le lot témoin.

[2] = test system: rat; experiment: Generalised ovalbumin oedema; assay type: in vivo; details: po, 100 mg/kg per os 1 h before and together with ovalbumin
Procedure: Une injection intrapéritonéale simultanée de 1 ml d'ovalbumine et de 0,5 ml d'une solution aqueuse de bleu Evans à 1% est effectuée sur le rat. D'autre part, on administre per os aux animaux du lot traité 100 mg/kg du dérivé à tester une heure avant et en même temps que l'ovalbumine. L'intensité du phénomène ainsi provoqué est notée par un chiffre allant de 1 à 5 suivant la progression du syndrome inflammatoire. On détermine ainsi la moyenne de l'intensité oedémateuse et le pourcentage de diminution de la réaction oedémateuse par rapport au témoin, en fonction du temps.

[3] = test system: souris; experiment: Potentiation of an infra-hypnotic dose of sodium pentobarbital; assay type: in vivo; details: mouse, 100 mg/kg oral, 30 min before i.p. infra-hypnotic dose of sodium pentobarbital; control 0
Procedure: Les composés de l'invention potentialisent de façon très nette l'action des hypnotiques. En effet, administrés à différents lots de souris par la voie orale, à la dose de 100 mg/ kg, trente minutes avant l'injection intrapéritonéale d'une dose infra-hypnotique de pentobarbital sodique, ils produisent par rapport aux animaux témoins non traités, une nette poten- tialisation de l'action du barbiturique.
En effet, le nombre de souris endormies, le temps moyen d'endormissement et la durée du sommeil sont nettement accrus dans les lots traités. Les résultats des composés les plus actifs sont rassemblés dans le Tableau I suivant.

[4] = test system: rat; experiment: Anticonvulsant action against electroshock; assay type: in vivo; details: 100 mg/kg oral, electroshock 30 min after treatment, score 0 to 4, untreated controls 4
Procedure: Cette action a été étudiée vis-à-vis des électrochocs. L'application chez le rat d'une stimulation électrique supérieure au seuil électro-convulsivant provoque des convulsions expérimentales. On compare alors chez les animaux témoins et chez les animaux traités, à la fois la présence et la durée de chacune des phases convulsives et l'intensité de la crise dans son ensemble.
On établit des séries de 10 rats par produit à tester et on administre par la voie orale, à chaque animal, 100 mg/kg de ce produit.
De chaque côté de la base de la queue de chaque […], une électrode Cat mise en place et 30 minutes après le traitement, l'animal placé dans une enceinte de verre reçoit pendant 50 millisecondes un courant sinusoïdal de 50 périodes/secondes de 120 volts.
Le passage du courant déclenche une crise convulsive dont chacune des phases (tonique, clonique, relachement musculaire) est chronométrée. L'intensité de la crise est alors notée de 0 à 4 selon la présence de chacune des phases et leur durée. Les produits de l'invention sont testés comparativement au phénobarbital qui possède une action anti-convulsivante marquée (intensité de la crise = 2), alors que chez les animaux témoins non traités c'est l'intensité maxima de 4 qui est obtenue.

[5] = Acute toxicity, intravenous LD50 (method of Miller and Tainter); set-up: species or system souris; details: mouse, in vivo, read-out: DL50/24 H/kg de poids corporel
Procedure: En ce qui concerne la toxicité aigüe, la DL50/24 H/kg de poids corporel, déterminée chez la souris selon la méthode de Miller et Tainter pour la voie orale est supérieure à 400 mg pour tous les dérivés.
Selon la même méthode, la DL50/24 H/kg de poids corporel déterminée par la vole intraveineuse est, par exemple, de 154 mg pour le dérivé N° 1, de 89 mg pour le dérivé N° 2, de 184mg pour le dérivé N° 10, de 130 mg pour le dérivé N° 11, de 350mg pour le dérivé N° 12, de 65 mg pour le dérivé N° 18, de 90 mg pour le dérivé N° 22, de 96 mg pour le dérivé N° 24 et de 105 mg pour le dérivé N° 31.

[6] = 1 h after carrageenan, read-out: Pourcentage d'activité anti-inflammatoire 1ère heure
[7] = 2 h after carrageenan, read-out: Pourcentage d'activité anti-inflammatoire 2ème heure
[8] = 3 h after carrageenan, read-out: Pourcentage d'activité anti-inflammatoire 3ème heure
[9] = 5 h after carrageenan, read-out: Pourcentage d'activité anti-inflammatoire 5ème heure
[10] = 2 h after ovalbumin injection, read-out: Pourcentage d'activité anti-inflammatoire 2ème heure
[11] = 3 h after ovalbumin injection, read-out: Pourcentage d'activité anti-inflammatoire 3ème heure

NC(=O)c1cc2ccsc2cn1 [Dérivé 32, Carbamoyl-5 thiéno [2,3-c] pyridine]
inhibition in vivo at 100 mg/kg [1, 6]: 34% | inhibition in vivo at 100 mg/kg [1, 7]: 41% | inhibition in vivo at 100 mg/kg [1, 8]: 45% | inhibition in vivo at 100 mg/kg [1, 9]: 47% | inhibition in vivo at 100 mg/kg [2, 10]: 52% | inhibition in vivo at 100 mg/kg [2, 11]: 60%

O=C(Nc1cccc(C(F)(F)F)c1)c1cc2sccc2cn1 [Dérivé 25, (trifluorométhyl-3 phényl)aminocarbonyl-6 thiéno[3,2-c] pyridine]
Pourcentage d'animaux endormis [3]: 90% | valeurs moyennes de l'intensité des crises [4]: 2,5 | inhibition in vivo at 100 mg/kg [1, 6]: 39% | inhibition in vivo at 100 mg/kg [1, 7]: 46% | inhibition in vivo at 100 mg/kg [1, 8]: 49% | inhibition in vivo at 100 mg/kg [1, 9]: 52% | inhibition in vivo at 100 mg/kg [2, 10]: 51% | inhibition in vivo at 100 mg/kg [2, 11]: 59%

CCNC(=O)c1cc2sccc2cn1 [Dérivé 4, Ethylaminocarbonyl-6 thiéno [3,2-c] pyridine]
valeurs moyennes de l'intensité des crises [4]: 3 | inhibition in vivo at 100 mg/kg [1, 6]: 41% | inhibition in vivo at 100 mg/kg [1, 7]: 46% | inhibition in vivo at 100 mg/kg [1, 8]: 50% | inhibition in vivo at 100 mg/kg [1, 9]: 58% | inhibition in vivo at 100 mg/kg [2, 10]: 47% | inhibition in vivo at 100 mg/kg [2, 11]: 56%

CCN(CC)CCNC(=O)c1cc2sccc2cn1 [Dérivé 18, β-diéthylaminoéthylaminocarbonyl-6 thiéno [3,2-c] pyridine]
LD50 at 24 h [5]: 65 mg/kg | Pourcentage d'animaux endormis [3]: 80% | inhibition in vivo at 100 mg/kg [1, 6]: 41% | inhibition in vivo at 100 mg/kg [1, 7]: 46% | inhibition in vivo at 100 mg/kg [1, 8]: 50% | inhibition in vivo at 100 mg/kg [1, 9]: 55% | inhibition in vivo at 100 mg/kg [2, 10]: 49% | inhibition in vivo at 100 mg/kg [2, 11]: 58%

O=C(c1cc2sccc2cn1)N1CCN(c2ccccc2Cl)CC1 [Dérivé 27, (o-chlorophényl-4 pipérazinyl-1) carbonyl-6 thiéno[3,2-c] pyridine]
inhibition in vivo at 100 mg/kg [1, 6]: 41% | inhibition in vivo at 100 mg/kg [1, 7]: 49% | inhibition in vivo at 100 mg/kg [1, 8]: 52% | inhibition in vivo at 100 mg/kg [1, 9]: 54% | inhibition in vivo at 100 mg/kg [2, 10]: 47% | inhibition in vivo at 100 mg/kg [2, 11]: 56%

O=C(NCCN1CCOCC1)c1cc2sccc2cn1 [Dérivé 19, β -morpholinoéthylaminocarbonyl-6 thiéno[3,2-c] pyridine]
valeurs moyennes de l'intensité des crises [4]: 2,5

O=C(NCc1cccnc1)c1cc2ccsc2cn1 [Dérivé 23, (pyridyl-3 méthyl)aminocarbonyl-5 thiéno [2,3-c]pyridine]
Pourcentage d'animaux endormis [3]: 80%

COc1ccccc1N1CCN(C(=O)c2cc3ccsc3cn2)CC1 [Dérivé 30, (o-méthoxyphényl-4 pipérazinyl-1) carbonyl-5 thiéno[2,3-c] pyridine]
valeurs moyennes de l'intensité des crises [4]: 2,5 | inhibition in vivo at 100 mg/kg [1, 6]: 38% | inhibition in vivo at 100 mg/kg [1, 7]: 45% | inhibition in vivo at 100 mg/kg [1, 8]: 49% | inhibition in vivo at 100 mg/kg [1, 9]: 53% | inhibition in vivo at 100 mg/kg [2, 10]: 48% | inhibition in vivo at 100 mg/kg [2, 11]: 56%

COc1ccc(N2CCN(C(=O)c3cc4sccc4cn3)CC2)cc1 [Dérivé 29, (p-méthoxyphényl-4 pipérazinyl-1) carbonyl-6 tniéno[3,2-c] pyridine]
Pourcentage d'animaux endormis [3]: 90%

O=C(c1cc2sccc2cn1)N1CCCCC1 [Dérivé 11, Pipéridinocaxbonyl-6 thiéno [3,2-c] pyridine]
LD50 at 24 h [5]: 130 mg/kg

O=C(NCc1ccccc1)c1cc2ccsc2cn1 [Dérivé 13, Benzylaminocarbonyl-5 thiéno [2,3-c] pyridine]
valeurs moyennes de l'intensité des crises [4]: 3 | inhibition in vivo at 100 mg/kg [1, 6]: 34% | inhibition in vivo at 100 mg/kg [1, 7]: 40% | inhibition in vivo at 100 mg/kg [1, 8]: 45% | inhibition in vivo at 100 mg/kg [1, 9]: 51% | inhibition in vivo at 100 mg/kg [2, 10]: 50% | inhibition in vivo at 100 mg/kg [2, 11]: 56%

O=C(NCCc1ccccc1)c1cc2sccc2cn1 [Dérivé 15, Phénéthylaminocarbonyl-6 thiéno[3,2-c] pyridine]
Pourcentage d'animaux endormis [3]: 90% | inhibition in vivo at 100 mg/kg [1, 6]: 38% | inhibition in vivo at 100 mg/kg [1, 7]: 45% | inhibition in vivo at 100 mg/kg [1, 8]: 49% | inhibition in vivo at 100 mg/kg [1, 9]: 53% | inhibition in vivo at 100 mg/kg [2, 10]: 53% | inhibition in vivo at 100 mg/kg [2, 11]: 60%

O=C(c1cc2sccc2cn1)N1CCOCC1 [Dérivé 12, Morpholinocarbonyl-6 thiéno [3,2-c] pyridine]
LD50 at 24 h [5]: 350 mg/kg

CCC1(c2ccccc2)C(=O)NC(=O)NC1=O [phénobarbital, reference compound]
valeurs moyennes de l'intensité des crises [4]: 2

CN(C)CCNC(=O)c1cc2sccc2cn1 [Dérivé 2, β -diméthylaminoéthylaminocarbonyl-6 thiéno [3,2-c] pyridine]
LD50 at 24 h [5]: 89 mg/kg

O=C(c1cc2sccc2cn1)N1CCN(c2cccc(Cl)c2)CC1 [Dérivé 28, (m-chlorophényl-4 pipérazinyl-1)carbonyl-6 thiéno[3,2-c] pyridine]
Pourcentage d'animaux endormis [3]: 80%

CCCCNC(=O)c1cc2sccc2cn1 [Dérivé 6, n-butylaminocarbonyl-6 thiéno [3,2-c] pyridine]
Pourcentage d'animaux endormis [3]: 80%

C=CCNC(=O)c1cc2sccc2cn1 [Dérivé 16, Allylaminocarbonyl-6 thiéno [3,2-c] pyridine]
Pourcentage d'animaux endormis [3]: 70%

O=C(NCc1cccnc1)c1cc2sccc2cn1 [Dérivé 24, (pyridyl-3 méthyl)aminocarbonyl-6 thiéno[3,2-c] pyridine]
LD50 at 24 h [5]: 96 mg/kg

O=C(NCc1ccncc1)c1cc2ccsc2cn1 [Dérivé 21, (pyridyl-4-méthyl)aminocarbonyl-5-thiéno[2,3-c] pyridine]
inhibition in vivo at 100 mg/kg [1, 6]: 40% | inhibition in vivo at 100 mg/kg [1, 7]: 48% | inhibition in vivo at 100 mg/kg [1, 8]: 51% | inhibition in vivo at 100 mg/kg [1, 9]: 54% | inhibition in vivo at 100 mg/kg [2, 10]: 45% | inhibition in vivo at 100 mg/kg [2, 11]: 52%

CC(C)NC(=O)c1cc2ccsc2cn1 [Dérivé 5, Isopropylaminocarbonyl-5 thiéno [2,3-c] pyridine]
Pourcentage d'animaux endormis [3]: 80% | valeurs moyennes de l'intensité des crises [4]: 2,5 | inhibition in vivo at 100 mg/kg [1, 6]: 43% | inhibition in vivo at 100 mg/kg [1, 7]: 49% | inhibition in vivo at 100 mg/kg [1, 8]: 54% | inhibition in vivo at 100 mg/kg [1, 9]: 56% | inhibition in vivo at 100 mg/kg [2, 10]: 52% | inhibition in vivo at 100 mg/kg [2, 11]: 60%

Cc1ccc(N2CCN(C(=O)c3cc4sccc4cn3)CC2)cc1 [Dérivé 26, (p-tolyl-4 pipérazinyl-1)carbonyl-6 thiéno[3,2-c]bvridine]
Pourcentage d'animaux endormis [3]: 90%

CCN(CC)C(=O)c1cc2sccc2cn1 [Dérivé 9, Diéthylaminocarbonyl-6 thiéno[3,2-c] pyridine]
valeurs moyennes de l'intensité des crises [4]: 2,5
